We go through six molecules from patent publication US20080051646A1, “Probe for cellular oxygen” (priority 2006, published 2008).

Where no end group is shown, it is not given here. PtCP = not defined here

Common to all, as to type: cell-based
Assay [1] concerns Jurkat T-cells. Nature of the assay: Phosphorescence lifetime of PtCP-BSA probe in Jurkat cells on a fluorescent lifetime spectrometer. The note with it: for change in intracellular probe phosphorescence lifetime after effector: Jurkat cells loaded with PtCP-BSA-Escort III probe, 1 μM, three minute intervals.
Experimental: Jurkat T-cells were grown in RPMI medium supplemented with 10% FBS, 2 mM L-glutamine, 100 U/ml penicillin and 100 μg/ml streptomycin.
For loading, the PtCP-BSA based probe comprising PtCP-BSA conjugate formulated with Escort III (described in Example 1) was used. Probe solution was pre-warmed by incubating at 37° C for 15 min followed by addition of 100 μl of the probe solution to the cell culture dish containing 800 μl of serum free medium. The cells and probe solution were incubated for 5 hours in a 5% CO2 incubator at 37° C., cells were then washed with 1 ml of serum free medium three times.
Loading of the cells loaded with the PtCP-based probe(s) was initially assessed by measurement on a fluorescent lifetime spectrometer Cary Eclipse (Varian), both in the intracellular environment (i.e. after loading and washing of the cells) and in the extracellular medium (at the start of loading, no washing). […] The inhibitor blocks oxygen consumption and adjusts intracellular oxygen levels to air-saturated levels.
Jurkat T-cell lymphoma cells were grown under normal conditions and loaded with the PtCP-BSA-Escort III based probe (as described in Example 1) using the method described in Example 3. Following washing the basal level of intracellular oxygen was assessed by measuring the phosphorescence lifetime of the PtCP probe using a Cary Eclipse spectrofluorometer and analyzing phosphorescence decays using Origin™ software (single-exponential fits). Phosphorescence lifetimes of the intracellular probe in loaded cells were measured at three minute intervals following the addition of 1 μM valinomycin.
For assay [2], the system named is A549 cells. The experiment in a line: Intracellular oxygen imaging of loaded cells treated with effector compounds. Here is the method: (§1) Loading of the cells with the PtCPK-BSA and PdCPK-BSA based probes (as described in Example 2) was carried out in the same way as described in Example 3 for the PtCP-BSA probes (i.e. 5 h in serum-free medium for the Escort or 24 h in serum-rich medium for Endoporter). A549 and HeLa cells loaded with PtCPK-BSA and PdCPK-BSA probes were then washed and analyzed by fluorescence microscopy. Imaging experiments of cells loaded with the probes were carried out on an Olympus IX51 inverted fluorescence microscope equipped with 75 W Xenon Arc Lamp (Cairn), an Optoscan Monochromator (Cairn) and an Orca-ER CCD camera (Hamamatsu). Live cell imaging was carried out using an Olympus UplanFl 1.3 NA 100× oil-immersion objective. The images were analysed using Kinetic Imaging AQM Advanced software (Version 6). The PtCPK and PdCPK probes were imaged under excitation at wavelengths of 395 nm and 400 nm respectively collecting the phosphorescence emission using a 600 nm cut-off filter.
Adherent A549, HeLa and SH-SY5Y cells were grown under normal conditions. Cells were loaded with probes based on PtCPK-BSA and PdCPK-BSA and Escort III (described in Example 2), and treated with various effector compounds with known mechanisms of action on cell metabolism and cellular response to the effector compounds was observed under a fluorescent microscope.
The effect of Ca-channel agonist ryanodine (20 nM) on SH-SY5Y cells, with up-regulation of cell metabolism by inducing a release of Ca2+ from intracellular stores, is shown in FIG. 4. […] An approximately 40% drop in PtCPK phosphorescence was observed as the base rate of respiration was inhibited resulting in higher levels of intracellular oxygen emanating from O2 influx from the extracellular medium.
The specificity of the CMC response was confirmed by incubating A549 cells with an equimolar concentration of the ryanodine channel blocker procaine followed by CMC treatment. In this case, phosphorescence intensity increased by less than 10% after the introduction of CMC.

The test system of assay [3] is Jurkat T cells. The experiment in a line: Lifetime of cell-surface-bound WGA-PtCP probe on Victor2 time resolved reader. Conditions: Jurkat cells loaded with WGA-PtCP probe; 1 μM; basal 25 μs. Here is the method:
Wheat germ agglutinin (WGA) at 1 mg/ml concentration in 0.1 M Na carbonate, pH 8.6 was labelled with the PtCP-NCS dye using a 20-molar excess of dye. After two hours of incubation at room temperature, the resulting conjugate was separated from the free dye as described in example 1 above. Jurkat T cells and human B cells were incubated with WGA-PtCP probe at 1 μM concentration for 30 min at 37° C. in RPMI medium, to achieve binding of the probe to glycoproteins on cell surface. After washing of loaded cells with medium, local oxygen concentration (at cell surface and within the cell) was assessed. and responses to effectors of respiration such as 1 μM FCCP were measured. Lifetimes of the cells loaded with WGA-PtCP probe was measured on a time resolved fluorescent reader Victor^2, using excitation at 340 nm excitation and 642 nm emission filters, and pairwise intensity readings at delay times 30 and 70 μs (at gate time 100 μs). Basal lifetime of resting Jurkat cells was recorded as 25 μs, moving to 32 μs upon the addition of FCCP (uncoupler of respiration). Under the same conditions, using the PtCP-BSA conjugate which had no ability to bind to the cells and remained in extracellular medium, intracellular oxygen gradients and responses to effectors were undetectable.

In assay [4] the test system is PC12 cells. The experiment in a line: Mitochondria-targeted probes in loaded cells on the Victor reader. Here is the method: The PtCP-BSA conjugate, synthesized as described in Example 1 was additionally labelled with a synthetic oligopeptide containing the following sequence: […]. The peptide comprises a mitochondria targeting sequence (according to http://psort.ims.u-tokyo.ac.jp), a terminal cysteine group was used for the conjugation. Labelling with the peptide was achieved by means of a heterobifunctional reagent—succinimide ester of maleimidopropionic acid. The PtCP-BSA conjugate was incubated with 10-molar excess of the reagent in 0.1 M phosphate buffer, pH 7.8 for 4 hours at room temperature, then separated on a PD-10 column in the same buffer. The peak of activated PtCP-BSA was collected, mixed with 10-molar excess of the peptide, incubated for further 6 hours. Finally, the PtCP-BSA-peptide conjugate was separated on a PD-10 column.
Alternatively, the peptide was conjugated directly to PtCP. The monofunctional maleimide derivative of PtCP was used, which reacts spontaneously with —SH groups on the peptide (terminal cysteins) to form stable covalent linkage. […]
Probes incorporating the PtCP-BSA-peptide and PtCP-peptide conjugates (successful labelling was confirmed by MALDI mass spectrometry) were formulated with Endoporter agent and used for cell loading as described in Examples 3 to 8. PC12 cells loaded with these probes produced high signals on the Victor reader.

The test system of assay [5] is HeLa cells. Nature of the assay: Intracellular oxygen imaging of loaded cells treated with valinomycin. Conditions: HeLa cells loaded with PtCPK-BSA or PdCPK-BSA; 1 μM. Here is the method:
as §1
Adherent A549, HeLa and SH-SY5Y cells were grown under normal conditions. Cells were loaded with probes based on PtCPK-BSA and PdCPK-BSA and Escort III (described in Example 2), and treated with various effector compounds with known mechanisms of action on cell metabolism and cellular response to the effector compounds was observed under a fluorescent microscope. […]

With antimycin A, in assay [1] (Jurkat cells loaded with PtCP-BSA probe, basal 31 μs, lifetime decreases and levels off), the “probe lifetime after addition of inhibitor” value is reported as ~25 μs. Moreover, the “change in intracellular probe phosphorescence lifetime after effector” value in assay [1] was “slight drop”. The “drop in PtCPK phosphorescence” value in assay [2] (A549 cells loaded with PtCPK-BSA/Escort III, 2 μM) was “approximately 40%”.
Consider `N#CC(C#N)=NNc1ccc(OC(F)(F)F)cc1` [FCCP], for which, in assay [3], the “lifetime upon addition of uncoupler” value is 32 μs.
“PtCP-peptide: PtCP-maleimide conjugated directly to peptide VLTPLLLRGLTGSARRLPVPRAKAC (VLTPLLLRGLTGSARRLPVPRAKAC(PtCP); reading uncertain)”: the “signals of loaded cells on the Victor reader” value in assay [4] (formulated with Endoporter) is “high signals”. The “phosphorescence lifetimes of resting loaded cells compared with PtCP-BSA probe” value in assay [4] (resting) is “higher”.
In the case of `CC(C)[C@@H]1NC(=O)[C@H](C)OC(=O)[C@@H](C(C)C)NC(=O)[C@@H](C(C)C)OC(=O)[C@H](C(C)C)NC(=O)[C@H](C)OC(=O)[C@@H](C(C)C)NC(=O)[C@@H](C(C)C)OC(=O)[C@H](C(C)C)NC(=O)[C@H](C)OC(=O)[C@@H](C(C)C)NC(=O)[C@@H](C(C)C)OC1=O` [valinomycin], the “change in intracellular probe phosphorescence lifetime after effector” value in assay [1] was “increase in probe lifetime was significantly faster than in a control sample”. Moreover, the “phosphorescence response to effector” value was “rapid and cell specific” in assay [5]; “rapid and cell specific” in assay [2] (A549 cells loaded with PtCPK-BSA or PdCPK-BSA, 1 μM).
Consider `Cc1cc(O)ccc1Cl` [CMC, 4-chloro-meta-cresol], for which, in assay [2] (A549 cells pre-incubated with equimolar procaine, then 500 μM CMC), the “increase of phosphorescence intensity” value is given as “less than 10%”. Further, in assay [2] (respiring A549 cells loaded with PtCPK-BSA, 500 μM), the “effect on the phosphorescence” value is “pronounced effect”.
Take ryanodine: the “response of loaded cells, lower concentrations” value in assay [2] (A549 cells loaded with PtCPK, 2 nM and 20 nM) is “increased phosphorescence”. Besides, in assay [2] (A549 cells loaded with PtCPK, 200 nM and 2 μM), the “response of loaded cells, higher concentrations” value is “little oxygen uptake”.
